Drawing on patent publication US20220073536A1 (Rigel Pharmaceuticals, Inc., priority 2003, published 2022), this text covers IC50 for 23 compounds.

Assay [1] concerns cultured human mast cells (CHMC). Description: CHMC low cell density ionomycin activation: tryptase assay. In kind it is cell-based. The conditions noted are these: Homo sapiens, Mast cell, low cell density CHMC, read-out: LD Tryptase, CHMC, Iono, 3 pt.
Assay [2] concerns the target T1, Syk kinase (Homo sapiens, UniProt P43405).
T1 construct: purchased Upstate, Lake Placid N.Y
Description: Syk kinase biochemical fluorescence polarization assay. Conditions: read-out: fp_syk, 11 pt. As for the experimental part:
Many of the 2,4-pyrimidinediamine compounds were tested for the ability to inhibit Syk kinase catalyzed phosphorylation of a peptide substrate in a biochemical fluorescenced polarization assay with isolated Syk kinase. In this experiment, Compounds were diluted to 1% DMSO in kinase buffer (20 mM HEPES, pH 7.4, 5 mM MgCl2, 2 mM MnCl2, 1 mM DTT, 0.1 mg/mL acetylated Bovine Gamma Globulin). Compound in 1% DMSO (0.2% DMSO final) was mixed with ATP/substrate solution at room temperature. Syk kinase (Upstate, Lake Placid N.Y.) was added to a final reaction volume of 20 uL, and the reaction was incubated for 30 minutes at room temperature. […] EDTA (10 mM final)/anti-phosphotyrosine antibody (1× final)/fluorescent phosphopeptide tracer (0.5× final) was added in FP Dilution Buffer to stop the reaction for a total volume of 40 uL according to manufacturer's instructions (PanVera Corporation) The plate was incubated for 30 minutes in the dark at room temperature. Plates were read on a Polarion fluorescence polarization plate reader (Tecan). Data were converted to amount of phosphopeptide present using a calibration curve generated by competition with the phosphopeptide competitor provided in the Tyrosine Kinase Assay Kit, Green (PanVera Corporation).
Background: In fluorescence polarisation assays a small probe gives low polarisation when free and higher when bound to something large.

Assay [3] has as its system cultured human mast cells (CHMC). Put plainly: CHMC low cell density IgE activation: tryptase assay. In kind it is cell-based. The conditions noted are these: IgE activation. The procedure, abridged: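 CHMC at 1000–1500 cells/well were preincubated 1 hr at 37° C., stimulated with anti-IgE for 30 minutes at 37° C., then pelleted. Supernatant tryptase was measured with a fluorogenic substrate after 30 min at room temperature, against un-stimulated control wells.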

Where [4] appears, read: Homo sapiens, Mast cell, low cell density CHMC, tryptase, 3 pt, read-out: LD Tryptase, CHMC, IgE, 3 pt.
Where [5] appears, read: Homo sapiens, Mast cell, low cell density CHMC, tryptase, 8 pt, read-out: LD Tryptase, CHMC, IgE, 8 pt.
Where [6] appears, read: Homo sapiens, Mast cell, low cell density CHMC, tryptase release, 8 point, read-out: LD Tryptase, CHMC, IgE, 8 pt.
[7] abbreviates: Homo sapiens, Mast cell, low cell density CHMC, tryptase release, 8 pt, read-out: LD Tryptase, CHMC, IgE, 8 pt.

Each structure is given as a SMILES string. Like-named read-outs stand apart in the source and are kept apart here.

As for `CNC(=O)CNC(=O)c1ccc(Nc2ncc(F)c(Nc3ccc4c(c3)C(N)CCO4)n2)cc1` (racemic) [Compound 1299, (R,S)-N4-[4-Amino-3,4-dihydro-2H-1-benzopyran-6-yl]-5-fluoro-N2-[4-[N-(N-methylamino)carbonylmethylene]aminocarbonylphenyl]-2,4-pyrimidinediamine], the IC50 is > 10 µM in assay [1] (tryptase, 3 pt); < 10 µM in assay [2] (isolated Syk kinase, 11 pt); < 10 µM in assay [3] (setting [4]); < 10 µM in assay [3] (setting [5]).

With `COc1cc(Nc2nc(Nc3cc(C)cc(C)c3)ncc2F)cc(OC)c1` [Compound 350], the IC50 was > 10 µM in assay [1] (tryptase, 3 pt); < 10 µM in assay [2] (isolated Syk kinase, 11 pt); < 10 µM in assay [3] (setting [4]); < 10 µM in assay [3] (setting [5]).

Regarding `COc1cc(OC)cc(N(C)c2nc(Nc3cc(C)cc(C)c3)ncc2F)c1` [Compound 399, N4-(3,5-Dimethoxyphenyl)-N2-(3,5-dimethylphenyl)-5-fluoro-N4-methyl-2,4-pyrimidinediamine], the IC50 in assay [1] (tryptase, 3 pt) is > 10 µM; in assay [2] (isolated Syk kinase, 11 pt), < 10 µM; in assay [3] (setting [4]), < 10 µM; in assay [3] (setting [5]), < 10 µM.

Regarding `COc1ccc(N(C)c2nc(Cl)ncc2F)cc1OC` [Compound 417], the IC50 is > 10 µM in assay [1] (tryptase, 3 pt); > 10 µM in assay [2] (isolated Syk kinase, 11 pt); > 10 µM in assay [3] (setting [4]); > 10 µM in assay [3] (setting [5]).

For the compound `COc1ccc(Nc2nc(Nc3cccc(-c4ncco4)c3)ncc2F)cc1OC` [Compound 423, N4-(3,4-Dimethoxyphenyl)-5-fluoro-N2-[3-(oxazol-2-yl)phenyl]-2,4-pyrimidinediamine], the IC50 is > 10 µM in assay [1] (tryptase, 3 pt); < 10 µM in assay [2] (isolated Syk kinase, 11 pt); < 10 µM in assay [3] (setting [4]); < 10 µM in assay [3] (setting [5]).

For the compound `COc1ccc(N(C)c2nc(Nc3cccc(-c4ncco4)c3)ncc2F)cc1OC` [Compound 439, N4-(3,4-Dimethoxyphenyl)-5-fluoro-N4-methyl-N2-[3-(oxazol-2-yl)phenyl]-2,4-pyrimidinediamine], the IC50 in assay [1] (tryptase, 3 pt) is > 10 µM; in assay [2] (isolated Syk kinase, 11 pt), > 10 µM; in assay [3] (setting [4]), < 10 µM; in assay [3] (setting [5]), < 10 µM.

For `CNC(=O)COc1ccc(Nc2nc(Nc3ccc4ccn(CC(=O)NC)c4c3)ncc2F)cc1Cl` [Compound 648, N4-[3-Chloro-4-(N-methylamino)carbonylmethyleneoxyphenyl]-5-fluoro-N2-[1-(N-methylamino)carbonylmethyleneindol-6-yl]-2,4-pyrimidinediamine], the IC50 in assay [1] (tryptase release, 3 point) was > 10 µM; in assay [2] (isolated Syk kinase, 11 point) it was < 10 µM; in assay [3] (Homo sapiens, Mast cell, low cell density CHMC, tryptase release, 3 point, read-out: LD Tryptase, CHMC, IgE, 3 pt) it was < 10 µM; in assay [3] (setting [6]), < 10 µM.

With `CNC(=O)COc1ccc(Nc2nc(Nc3ccc4c(ccn4CC(=O)NC)c3)ncc2F)cc1Cl` [Compound 652, N4-[3-Chloro-4-(N-methylamino)carbonylmethyleneoxyphenyl]-5-fluoro-N2-[1-(N-methylamino)carbonylmethyleneindol-5-yl]-2,4-pyrimidinediamine], the IC50 in assay [2] (isolated Syk kinase, 11 point) is < 10 µM; in assay [3] (setting [6]) it was < 10 µM.

For the compound `COc1ccc(Nc2nc(Nc3ccc4c(c3)c(N)nn4C)ncc2F)cc1Cl` [Compound 804, N2-(3-Amino-1-methylindazol-5-yl)-N4-(3-chloro-4-methoxyphenyl)-5-fluoro-2,4-pyrimidinediamine], the IC50 was < 10 µM in assay [2] (isolated Syk kinase, 11 pt) and < 10 µM in assay [3] (setting [7]).

In the case of `C[C@@H]1Oc2ccc(Nc3nc(Nc4ccc5c(c4)c(N)nn5C)ncc3F)cc2NC1=O` [Compound 807, (S)-N2-(3-Amino-1-methylindazol-5-yl)-5-fluoro-N4-(2-methyl-3-oxo-4H-benz[1,4]oxazin-6-yl)-2,4-pyrimidinediamine], the IC50 in assay [2] (isolated Syk kinase, 11 pt) was < 10 µM; in assay [3] (setting [7]), < 10 µM.

As to `COc1ccc(Nc2nc(Nc3ccc4c(cnn4CCCNC(C)=O)c3)ncc2F)cc1Cl` [Compound 819, N2-[1-[3-(N-Acetylamino)propyl]indazol-5-yl]-N4-(3-chloro-4-methoxyphenyl)-5-fluoro-2,4-pyrimidinediamine], the IC50 was < 10 µM in assay [2] (isolated Syk kinase, 11 pt) and < 10 µM in assay [3] (setting [7]).

As for `Cn1c(N2CCOCC2)nc2cc(Nc3ncc(F)c(Nc4ccc(Cl)c(Cl)c4)n3)ccc21` [Compound 942, N4-(3,4-Dichlorophenyl)-5-fluoro-N2-[1-methyl-2-(4-morpholino)benzimidazol-5-yl]-2,4-pyrimidinediamine], the IC50 was < 10 µM in assay [2] (11 pt); < 10 µM in assay [3] (low cell density, 3 pt, read-out: LD Tryptase, CHMC, IgE, 3 pt); < 10 µM in assay [3] (low cell density, 8 pt, read-out: LD Tryptase, CHMC, IgE, 8 pt).

For the compound `COc1ccc(Nc2nc(Nc3ccc4c(c3)nc(N3CCOCC3)n4C)ncc2F)cc1Cl` [Compound 943, N4-(3-Chloro-4-methoxyphenyl)-5-fluoro-N2-[1-methyl-2-(4-morpholino)benzimidazol-5-yl]-2,4-pyrimidinediamine], the IC50 was < 10 µM in assay [2] (11 pt) and < 10 µM in assay [3] (Homo sapiens, Mast cell, low cell density, 3 pt, read-out: LD Tryptase, CHMC, IgE, 3 pt).

`Fc1cnc(Nc2ccc3[nH]c(N4CCOCC4)nc3c2)nc1Nc1ccc(Cl)c(Cl)c1` [Compound 975, N4-(3,4-Dichlorophenyl)-5-fluoro-N2-[2-(4-morpholino)-1H-benzimidazol-5-yl]-2,4-pyrimidinediamine]: the IC50 in assay [2] (11 pt) was < 10 µM; in assay [3] (Homo sapiens, Mast cell, low cell density, 8 pt, read-out: LD Tryptase, CHMC, IgE, 8 pt), < 10 µM.

`CN1CCN(c2ccc(Nc3ncc(F)c(NC4CCCCC4)n3)cc2Cl)CC1` [Compound 1191, N2-[3-Chloro-4-(4-methylpiperazino)phenyl]-N4-cyclohexyl-5-fluoro-2,4-pyrimidinediamine]: the IC50 in assay [2] (isolated Syk kinase, 11 pt) was < 10 µM; in assay [3] (setting [4]), < 10 µM.

In the case of `Nc1nc(Nc2nc(Nc3ccc4cn[nH]c4c3)ncc2F)n[nH]1` [Compound 1255], the IC50 was < 10 µM in assay [2] (isolated Syk kinase, 11 pt) and < 10 µM in assay [3] (setting [5]).

Regarding `CCN(CC)CCNC(=O)c1ccc(Nc2ncc(F)c(Nc3ccc(OC)c(Cl)c3)n2)cc1` [Compound 1320, N4-(3-Chloro-4-methoxyphenyl)-5-fluoro-N2-(4-[2-[N,N-diethylamino]ethyleneaminocarbonyl]phenyl)-2,4-pyrimidinediamine], the IC50 was < 10 µM in assay [2] (isolated Syk kinase, 11 pt) and < 10 µM in assay [3] (setting [5]).

With `COc1ccc(Nc2nc(Nc3ccc(C(N)=O)cc3)ncc2F)cc1Cl` [Compound 1321, N2-(4-Aminocarbonylphenyl)-N4-(3-chloro-4-methoxyphenyl)-5-fluoro-2,4-pyrimidinediamine], the IC50 in assay [2] (isolated Syk kinase, 11 pt) was < 10 µM; in assay [3] (setting [5]), < 10 µM.

As for `CC1(C)Oc2ccc(Nc3ncc(F)c(Nc4ccc(C(N)=O)cc4)n3)cc2NC1=O` [Compound 1337], the IC50 is < 10 µM in assay [2] (isolated Syk kinase, 11 pt); < 10 µM in assay [3] (setting [4]); < 10 µM in assay [3] (setting [5]).

For the compound `Cc1noc(COc2ccc(Nc3nc(Nc4ccc(C(N)=O)cc4)ncc3F)cc2)n1` [Compound 1341, N2-(4-Aminocarbonylphenyl)-5-fluoro-N4-(4-[3-methyl-1,2,4-oxadiazol-5-yl]methyleneoxyphenyl)-2,4-pyrimidinediamine], the IC50 in assay [2] (isolated Syk kinase, 11 pt) is < 10 µM; in assay [3] (setting [4]) it was < 10 µM; in assay [3] (setting [5]) it was < 10 µM.

As for `CCN(CC)CCNC(=O)c1ccc(Nc2ncc(F)c(Nc3ccc(OCc4nc(C)no4)cc3)n2)cc1` [Compound 1343, N2-(4-[2-[N,N-Diethylamino]ethyleneaminocarbonyl]phenyl)-5-fluoro-N4-(4-[3-methyl-1,2,4-oxadiazol-5-yl]methyleneoxyphenyl)-2,4-pyrimidinediamine], the IC50 in assay [2] (isolated Syk kinase, 11 pt) is < 10 µM; in assay [3] (setting [4]), < 10 µM; in assay [3] (setting [5]) it was < 10 µM.

As for `Cc1noc(COc2ccc(Nc3nc(Nc4cc(Cl)c(O)c(Cl)c4)ncc3F)cc2)n1` [Compound 1344, N2-(3,5-Dichloro-4-hydroxyphenyl)-5-fluoro-N4-(4-[3-methyl-1,2,4-oxadiazol-5-yl]methyleneoxyphenyl)-2,4-pyrimidinediamine], the IC50 was < 10 µM in assay [2] (isolated Syk kinase, 11 pt); < 10 µM in assay [3] (setting [4]); > 10 µM in assay [3] (setting [5]).

On to `COc1cc(Cl)cc(Nc2ncc(F)c(Nc3ccc(OCc4nc(C)no4)cc3)n2)c1` [Compound 1345, N2-(3-Chloro-5-methoxyphenyl)-5-fluoro-N4-(4-[3-methyl-1,2,4-oxadiazol-5-yl]methyleneoxyphenyl)-2,4-pyrimidinediamine], for which the IC50 in assay [2] (isolated Syk kinase, 11 pt) is < 10 µM; in assay [3] (setting [4]), > 10 µM.
